Laboratory results reported in publication PMC6927504, “Screening of House Dust from Chinese Homes for Chemicals with Liver X Receptors Binding Activities and Characterization of Atherosclerotic Activity Using an in Vitro Macrophage Cell Line and ApoE^−/− Mice” (Environmental Health Perspectives, 2019).

Assays:
[1] = test system: RAW264.7 macrophages; assay: CellTiter-Glo Luminescent Cell Viability Assay; assay type: cell-based; conditions: 24-h exposure at 1–20,000 nM
Experimental: (§1) RAW264.7 cells were obtained from the National Infrastructure of Cell Line Resource of Beijing, China, and the cells used for the experiment were cultured for at least three passages. Dulbecco’s Modified Eagle’s Medium (DMEM)-F12 medium containing 10% fetal bovine serum (FBS) was employed to culture the RAW264.7 cells. RAW264.7 cells were incubated at 37°C with 5% carbon dioxide. The RAW264.7 cells were plated at 2.5×10^5 cells/well (6-well plates), 6.0×10^4 cells/well (24-well plates), and 10^4 cells/well (96-well plates). The RAW264.7 cells were plated and grown overnight; then the medium was removed and fresh DMEM-F12 contained with 0.1% DMSO (control; n=3 ) or TPHP at the concentrations of 1–20,000 nM ( n=3 per group) was added. […] Then the cells were used for the quantitative reverse transcription (qRT)-PCR, cellular cholesterol efflux assay, and foam cell formation experiment.
Cell viability was assessed using the CellTiter-Glo® Luminescent Cell Viability Assay based on the manufacturer’s instructions ( n=3 per group). Luminescence was assessed using an LB 941 TriStar multimode microplate reader (Berthold Technologies).

[2] = test system: mouse peritoneal macrophages; assay: NBD-cholesterol efflux in peritoneal macrophages isolated from exposed C57BL/6 mice; assay type: in vivo; conditions: 200 mg/kg BW for 7 d
Experimental: RAW264.7 cells or mouse peritoneal macrophages were plated in 96-well plates at 10^4 cells/well and cultured with DMEM-F12 containing 10% FBS and 1μg/mL 22-[N-(7-nitrobenz-2-oxa-1,3-diazol-4-yl)amino]-23,24-bisnor-5-cholen-3β-Ol (NBD-cholesterol) for 24 h. Subsequently, the medium was completely removed and fresh DMEM-F12 containing 10% FBS and 0.1% DMSO (control; n=3 ) or TPHP at the concentration of 1–20,000 nM ( n=3 per group) was added. After a further 24-h incubation, the cells were washed with phosphate-buffered saline (PBS) and then incubated with serum-free medium containing ApoA-I ( 20μg/mL ) or high-density lipoprotein (HDL; 50μg/mL ) for 4 h. Then the medium was collected, and the cells were lysed with a cell lysis buffer. NBD-cholesterol in the medium and cell lysis buffer were measured, respectively, using a Tecan Infinite® M1000Pro Microplate Reader (Tecan Group Ltd.) at 485-nm excitation wavelength and 535-nm emission wavelength. Cholesterol efflux was expressed as a percentage of fluorescence in the medium relative to the total amount of fluorescence.
All experiments related to animals were approved by the institutional animal care and use committee of Peking University and followed the guidelines for animal experiments of the university as well as for experimental animals in China. […] Body weight (BW) was measured every week during the dosing period. […]

[3] = test system: ABCA1; assay: qRT-PCR of LXR target gene ABCA1 in RAW264.7 macrophages; assay type: cell-based; conditions: vehicle-treated cells set to 1, p<0.01
Experimental: as §1
Total RNA was isolated from RAW264.7 cells and mouse peritoneal macrophages using TRIzol reagent according to the manufacturer’s instructions. Then a Nanovue Plus™ spectrophotometer (GE Healthcare Life Science) was used to analyze the concentration, quality, and purity of the RNA. Total RNA ( 1μg ) was mixed with oligo deoxythymine (dT) ( 1μL ) at 70°C for 5 min and then combined with a mixture containing Moloney murine leukemia virus (MMLV) reverse transcriptase ( 1μL ), deoxy-ribonucleoside triphosphate (dNTP) ( 1.25μL ), Recombinant RNasin® Ribonuclease Inhibitor (Promega) ( 0.65μL ), and MMLV buffer ( 5μL ) at 42°C for 60 min. The SYBR® Green PCR Kit (TOYOBO) was used for RT-PCR analysis. Real-time fluorescence detection was performed using the StepOnePlus™ sequence detection system (Applied Biosystems). […] The following primers were designed and purchased from Sangon Biotech:
• actin: 5′-[…]-3′ and 5′-[…]-3′ ATP-binding cassette transporter A1 (ABCA1): 5′-[…]-3′ and 5′-[…]-3′ • ATP-binding cassette transporter G1 (ABCG1): 5′-[…]-3′ and 5′-[…]-3′.

With `O=P(Oc1ccccc1)(Oc1ccccc1)Oc1ccccc1` [TPHP, triphenyl phosphate] the Cell viability [1] was “no significant loss of cell viability”, the “ApoA-I-mediated cholesterol efflux in peritoneal macrophages” value [2] was “Significant inhibition” and the “HDL-mediated cholesterol efflux in peritoneal macrophages” value [2] was “Significant inhibition”. The “ABCA1 gene expression relative to control” value ([3]; 5,000 nM) was 0.49±0.06 fold, the “ABCA1 gene expression relative to control” value ([3]; 10,000 nM) was 0.38±0.01 fold and the “ABCA1 gene expression relative to control” value ([3]; 20,000 nM) was 0.30±0.03 fold.
